# Laboratory results: ChEMBL document CHEMBL1201862, “PubChem BioAssay data set” (2004)
#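 Following 48 hours of exposure in 96-well plates, responses at five concentrations were used to interpolate endpoints linearly. GI50: concentration for 50% inhibition of growth.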 Calls of active or inactive are those of the source. Rule as the data show it: active = GI50 up to about 1.1 µM and inactive = higher.
# Legend:
# Experiment in all cases: growth of human tumour cells (NCI), 48 h
# SK-MEL-28 = tested on: SK-MEL-28
# CCRF-CEM = tested on: CCRF-CEM
# A498 = tested on: A498
# OVCAR-3 = tested on: OVCAR-3
# UO-31 = tested on: UO-31
# COLO 205 = tested on: COLO 205
# BT-549 = tested on: BT-549
# PC-3 = tested on: PC-3
# DU-145 = tested on: DU-145
# KM12 = tested on: KM12
# SK-MEL-5 = tested on: SK-MEL-5
# SF-295 = tested on: SF-295
# MCF7 = tested on: MCF7
# UACC-62 = tested on: UACC-62
# IGROV-1 = tested on: IGROV-1
# 786-0 = tested on: 786-0
# U-251 = tested on: U-251
# TK-10 = tested on: TK-10
# MOLT-4 = tested on: MOLT-4
# SF-539 = tested on: SF-539
# M14 = tested on: M14
# RPMI-8226 = tested on: RPMI-8226
# CAKI-1 = tested on: CAKI-1
# Malme-3M = tested on: Malme-3M
# ACHN = tested on: ACHN
# SK-MEL-2 = tested on: SK-MEL-2
# SW-620 = tested on: SW-620
# NCI-H226 = tested on: NCI-H226
# UACC-257 = tested on: UACC-257
# SR = tested on: SR
# K562 = tested on: K562
# HOP-62 = tested on: HOP-62
# MDA-MB-435 = tested on: MDA-MB-435
# SK-OV-3 = tested on: SK-OV-3
# HL-60 = tested on: HL-60
# T47D = tested on: T47D
# HCT-15 = tested on: HCT-15
# OVCAR-5 = tested on: OVCAR-5
# MDA-N = tested on: MDA-N
# NCI/ADR-RES = tested on: NCI/ADR-RES
# SN12C = tested on: SN12C
# SNB-19 = tested on: SNB-19
# HCT-116 = tested on: HCT-116
# OVCAR-8 = tested on: OVCAR-8
# MDA-MB-231 = tested on: MDA-MB-231
# SF-268 = tested on: SF-268
# LOX IMVI = tested on: LOX IMVI
# HT-29 = tested on: HT-29
# RXF 393 = tested on: RXF 393
# Hs-578T = tested on: Hs-578T
# EKVX = tested on: EKVX
# NCI-H23 = tested on: NCI-H23
# OVCAR-4 = tested on: OVCAR-4
# NCI-H460 = tested on: NCI-H460
# HCC 2998 = tested on: HCC 2998
# A549 = tested on: A549
# HOP-92 = tested on: HOP-92
# NCI-H522 = tested on: NCI-H522
compound,measurement,setting,value
O=C(c1ccc(Cl)cc1)N(C(=S)OCc1ccccn1)c1ccccc1,GI50,SK-MEL-28,> 100 µM (inactive)
same,GI50,CCRF-CEM,43.6 µM (inactive)
same,GI50,A498,> 100 µM (inactive)
same,GI50,OVCAR-3,52.7 µM (inactive)
same,GI50,UO-31,31 µM (inactive)
same,GI50,COLO 205,> 100 µM (inactive)
same,GI50,BT-549,60.7 µM (inactive)
same,GI50,PC-3,45.1 µM (inactive)
same,GI50,DU-145,58.6 µM (inactive)
same,GI50,KM12,> 100 µM (inactive)
same,GI50,SK-MEL-5,58.9 µM (inactive)
same,GI50,SF-295,76.6 µM (inactive)
same,GI50,MCF7,46.3 µM (inactive)
same,GI50,UACC-62,> 100 µM (inactive)
same,GI50,IGROV-1,36.1 µM (inactive)
same,GI50,786-0,83.2 µM (inactive)
same,GI50,U-251,53.6 µM (inactive)
same,GI50,TK-10,88.1 µM (inactive)
same,GI50,MOLT-4,41.6 µM (inactive)
same,GI50,SF-539,33 µM (inactive)
same,GI50,M14,65.3 µM (inactive)
same,GI50,RPMI-8226,40.6 µM (inactive)
same,GI50,CAKI-1,71.8 µM (inactive)
same,GI50,Malme-3M,61.1 µM (inactive)
same,GI50,ACHN,70.6 µM (inactive)
same,GI50,SK-MEL-2,> 100 µM (inactive)
same,GI50,SW-620,66.7 µM (inactive)
same,GI50,NCI-H226,33.7 µM (inactive)
same,GI50,UACC-257,82.6 µM (inactive)
same,GI50,SR,> 100 µM (inactive)
same,GI50,K562,48.1 µM (inactive)
same,GI50,HOP-62,16.6 µM (inactive)
same,GI50,MDA-MB-435,> 100 µM (inactive)
same,GI50,SK-OV-3,> 100 µM (inactive)
same,GI50,HL-60,28.8 µM (inactive)
same,GI50,T47D,29.3 µM (inactive)
same,GI50,HCT-15,40.4 µM
same,GI50,OVCAR-5,73.6 µM (inactive)
same,GI50,MDA-N,> 100 µM (inactive)
same,GI50,NCI/ADR-RES,39 µM (inactive)
same,GI50,SN12C,51.6 µM (inactive)
same,GI50,SNB-19,> 100 µM (inactive)
same,GI50,HCT-116,46.6 µM (inactive)
same,GI50,OVCAR-8,> 100 µM (inactive)
same,GI50,MDA-MB-231,> 100 µM (inactive)
same,GI50,SF-268,> 100 µM (inactive)
same,GI50,LOX IMVI,68.2 µM (inactive)
same,GI50,HT-29,55 µM (inactive)
same,GI50,RXF 393,23.5 µM (inactive)
same,GI50,Hs-578T,> 100 µM (inactive)
same,GI50,EKVX,20.6 µM (inactive)
same,GI50,NCI-H23,67.6 µM (inactive)
COC(=O)c1c(O)ccc2c1c1c(n2Cc2ccccc2Cl)C(=O)c2ccccc2C1=O,GI50,SK-MEL-28,15.6 µM (inactive)
same,GI50,OVCAR-4,2.93 µM (inactive)
same,GI50,CCRF-CEM,8.38 µM (inactive)
same,GI50,A498,16.5 µM (inactive)
same,GI50,OVCAR-3,10 µM (inactive)
same,GI50,UO-31,10.9 µM (inactive)
same,GI50,COLO 205,4.13 µM (inactive)
same,GI50,NCI-H460,6.78 µM (inactive)
same,GI50,BT-549,12.6 µM (inactive)
same,GI50,PC-3,11.5 µM (inactive)
same,GI50,DU-145,15.5 µM (inactive)
same,GI50,KM12,10.1 µM (inactive)
same,GI50,HCC 2998,14.6 µM (inactive)
same,GI50,SK-MEL-5,12.5 µM (inactive)
same,GI50,SF-295,14.6 µM (inactive)
same,GI50,MCF7,6.73 µM (inactive)
same,GI50,UACC-62,14.8 µM (inactive)
same,GI50,IGROV-1,13.6 µM (inactive)
same,GI50,786-0,16.6 µM (inactive)
same,GI50,U-251,12.6 µM (inactive)
same,GI50,TK-10,16.1 µM (inactive)
same,GI50,MOLT-4,7.03 µM (inactive)
same,GI50,SF-539,15.4 µM (inactive)
same,GI50,M14,15.5 µM (inactive)
same,GI50,A549,8.69 µM (inactive)
same,GI50,RPMI-8226,5.98 µM (inactive)
same,GI50,CAKI-1,13.7 µM (inactive)
same,GI50,Malme-3M,17 µM (inactive)
same,GI50,ACHN,16.5 µM (inactive)
same,GI50,SK-MEL-2,17.4 µM (inactive)
same,GI50,NCI-H226,17.7 µM (inactive)
same,GI50,UACC-257,17.9 µM (inactive)
same,GI50,SR,14.6 µM (inactive)
same,GI50,K562,14.3 µM (inactive)
same,GI50,HOP-62,26 µM (inactive)
same,GI50,HOP-92,14.8 µM (inactive)
same,GI50,MDA-MB-435,10.7 µM (inactive)
same,GI50,SK-OV-3,12.9 µM (inactive)
same,GI50,NCI-H522,10.9 µM (inactive)
same,GI50,HL-60,16.9 µM (inactive)
same,GI50,T47D,7.01 µM (inactive)
same,GI50,HCT-15,12.7 µM
same,GI50,OVCAR-5,19.5 µM (inactive)
same,GI50,MDA-N,12.8 µM (inactive)
same,GI50,NCI/ADR-RES,12.1 µM (inactive)
same,GI50,SN12C,10.2 µM (inactive)
same,GI50,SNB-19,16 µM (inactive)
same,GI50,HCT-116,10.5 µM (inactive)
same,GI50,OVCAR-8,16 µM (inactive)
same,GI50,MDA-MB-231,15.3 µM (inactive)
same,GI50,SF-268,12.4 µM (inactive)
same,GI50,HT-29,1.17 µM (inactive)
same,GI50,RXF 393,16.3 µM (inactive)
same,GI50,Hs-578T,21.6 µM (inactive)
same,GI50,EKVX,16.9 µM (inactive)
same,GI50,NCI-H23,13.2 µM (inactive)
